One compound from ChEMBL document CHEMBL6083245, “Digoxin and its Na+/K+-ATPase-targeted actions on cardiovascular diseases and cancer” (Bioorg Med Chem, 2024) can be followed below.

Common to all, as to format: functional, cell-based
The test system of experiment [1] is HT-29. Kind of experiment: Cytotoxicity against human HT-29 cells assessed as reduction in cell growth incubated for 72 hrs by MTT assay. Conditions: HT-29, 72 h. (Tetrazolium assays rely on reduction of a dye to a coloured formazan, in cell work by metabolically active cells.)
The subject of experiment [2] is HeLa. Kind of experiment: Antiproliferative activity against human HeLa cells assessed as reduction in cell viability by MTS assay.
For experiment [3], the system named is NCI-H1299. Kind of experiment: Antiproliferative activity against human NCI-H1299 cells assessed as reduction in cell viability incubated for 48 hrs by Cell-titer Glo luminescent assay. Conditions: NCI-H1299, 48 h.
In experiment [4] the test system is HCT-8. Kind of experiment: Cytotoxicity against human HCT-8 cells assessed as reduction in cell growth incubated for 72 hrs by MTT assay. Conditions: HCT-8, 72 h.
Experiment [5] deals with NCI-H1963. Kind of experiment: Antiproliferative activity against human NCI-H1963 cells assessed as reduction in cell viability incubated for 48 hrs by Cell-titer Glo luminescent assay. To be noted: NCI-H1963, 48 h.
Experiment [6] deals with NCI-H69. Kind of experiment: Antiproliferative activity against human NCI-H69 cells assessed as reduction in cell viability incubated for 48 hrs by Cell-titer Glo luminescent assay. To be noted: NCI-H69, 48 h.
The test system of experiment [7] is NCI-H526. Kind of experiment: Antiproliferative activity against human NCI-H526 cells assessed as reduction in cell viability incubated for 48 hrs by Cell-titer Glo luminescent assay. Conditions: NCI-H526, 48 h.
Experiment [8] relates to SW-620. Kind of experiment: Cytotoxicity against human SW620 cells assessed as reduction in cell growth incubated for 72 hrs by MTT assay. To be noted: SW-620, 72 h.
For experiment [9], the system named is MDA-MB-435. Kind of experiment: Cytotoxicity against human MDA-MB-435 cells assessed as reduction in cell growth incubated for 72 hrs by MTT assay. Conditions: MDA-MB-435, 72 h.
In experiment [10] the test system is A549. Kind of experiment: Antiproliferative activity against human A549 cells assessed as reduction in cell viability incubated for 48 hrs by Cell-titer Glo luminescent assay. Conditions: A549, 48 h.
Experiment [11] in a line: Antiproliferative activity against human NCI-H196 cells assessed as reduction in cell viability incubated for 48 hrs by Cell-titer Glo luminescent assay. To be noted: NCI-H196, 48 h.
Experiment [12] is described as follows: Antiproliferative activity against human NSCLC cells assessed as reduction in cell viability incubated for 48 hrs by Cell-titer Glo luminescent assay.
The test system of experiment [13] is OVCAR-3. Kind of experiment: Cytotoxicity against human OVCAR-3 cells assessed as reduction in cell growth incubated for 72 hrs by MTT assay. To be noted: OVCAR-3, 72 h.
The subject of experiment [14] is MDA-MB-231. Kind of experiment: Cytotoxicity against human MDA-MB-231 cells assessed as reduction in cell growth incubated for 72 hrs by MTT assay. To be noted: MDA-MB-231, 72 h.
Experiment [15] relates to NCI-H82. Kind of experiment: Antiproliferative activity against human NCI-H82 cells assessed as reduction in cell viability incubated for 48 hrs by Cell-titer Glo luminescent assay. Conditions: NCI-H82, 48 h.

As a reminder, the IC50 is the concentration that inhibits the measured activity by half.

Structures are written as SMILES.

On to `C[C@H]1O[C@@H](O[C@H]2[C@@H](O)C[C@H](O[C@H]3[C@@H](O)C[C@H](O[C@H]4CC[C@@]5(C)[C@H](CC[C@@H]6[C@@H]5C[C@@H](O)[C@]5(C)[C@@H](C7=CC(=O)OC7)CC[C@]65O)C4)O[C@@H]3C)O[C@@H]2C)C[C@H](O)[C@@H]1O` [DIGOXIN], for which the IC50 in experiment [1] came to 100 nM; in experiment [2], 0.2 nM; in experiment [3] it was 50 nM; in experiment [4], 100 nM; in [5] it was 50 nM; in experiment [6] it was 50 nM. Further, the IC50 in [7] was found to be 50 nM; in experiment [8], 100 nM; in [9] it was 100 nM; in [10], 50 nM; in experiment [11], 50 nM; in experiment [12], 50 nM. The figures for the half-maximal inhibitory concentration (IC50) in [13], in experiment [14] and in [15] were 100 nM, 100 nM and 50 nM, respectively.
